Assay results taken from patent publication US8771744B2, “Barrier composition” (Prosonix Limited, priority 2009, dated 2014).
Structures can show the parent of a compound that is named as a salt.

Assay: Particle size distribution (Sympatec) of spray dried, ultrasound treated particles
Format: physicochemical
Description: Preferably the active particles of the invention have a volume diameter of less than 10 μm, more preferably at least 90 wt % of the active ingredient particles in a given composition have a diameter equal to or lower than 10 μm as determined by measuring the characteristic equivalent sphere diameter, known as volume diameter, by laser diffraction as described above, preferably using a Malvern or equivalent apparatus. The parameters taken into consideration are the volume diameters (VD) in microns of 10%, 50% and 90% of the particles expressed as d(10), d(50) and d(90), respectively, which correspond to the mass diameter assuming a size independent density for the particles.
Fenoterol hydrobromide (5 g) was dissolved in 100 mL of methanol. The samples of Fenoterol hydrobromide powder collected in the ultrasonic chamber were produced using a Büchi-290 laboratory-scale spray dryer (Büchi, Switzerland). The solution was atomized using nitrogen at 7 bar flowing at approximately at 10 Lpm (Liter/minute). The aspirator was set at 100% and flow rate of solution was set to […]. The gas temperature was set to 120° C. Fenoterol hydrobromide particles were collected from both the cyclone separator and the PTFE bag filter assembly. The resultant amorphous particles contained 3000 ppm (0.3% w/w) residual methanol. The particles were placed into an ultrasonic chamber fitted with a 20 kHz ultrasonic transducer on its base (Prosonix SL 10) as shown in FIG. 8. The chamber was heated to 40° C. using a thermoregulated water jacket. Ultrasound at 20 W power was applied between 30 minutes and 2 hour. The resulting particles were characterized by optical microscopy and DSC (Differential Scanning Calorimetry). The size of the particles were typically in the range of 1-7 μm. In this specific example d(10)=0.91 μm; d(50)=1.76 μm; d(90)=3.38 μm (see FIG. 4).

[1] = spray dried particles after dry powder ultrasound treatment, FIG. 4

For `CC(Cc1ccc(O)cc1)NCC(O)c1cc(O)cc(O)c1` (stereo not shown) [Fenoterol hydrobromide], the “size of the particles” value (spray dried particles after dry powder ultrasound treatment (20 kHz, 20 W, 40° C., 30 minutes to 2 hour), typical range) was 1-7 μm, the “d(10)” value [1] was 0.91 μm and the “d(50)” value [1] was 1.76 μm. The “d(90)” value [1] was 3.38 μm.
